From patent publication US20250327029A1, “PROCESS FOR THE OBTENTION OF INVARIANT NATURAL KILLER T CELLS” (Université de Lorraine, priority 2022, published 2025)

System: CD4^− iNKT cells
Experiment: Expansion of iNKT cells from PBMC cultured with alpha-GalCer and a cytokine (IL-15 or IL-2)
Format: cell-based, human
Procedure: The expansion factor of iNKT cells is more preferably comprised between 100 and 10 000. The “expansion factor” corresponds to the number of iNKT cells obtained at day 14 of expansion divided by the number of iNKT cells put in culture at day 0. The number of cells is determined by routinely used techniques by the skilled person (cell couting and flow cytometry staining to determine the percentage of iNKT cells among total PBMCs).
PBMC obtained by centrifugation of fresh whole blood on density gradient were culture at the concentration of 5.10^5 cells/mL in RPMI 1640 advanced medium (ref: 11530446, Gibco®), with 5% SVF v/v, 4 mM glutamine, 100 ng/mL alpha-galactoside-ceramide (KRN-7000, Funakoshi). Cultures were performed in a cell culture bag in a normoxia incubator at 37° C. and 5% CO2.
On day 1 of culture, 10 ng/mL of IL-15 were added.
On day 7 of culture, 50% of the medium was changed and 10 ng/mL of IL-15 were introduced.
On day 10 of the culture, 50% of the medium was changed and 10 ng/mL of IL-15 were introduced.
On day 14 of the culture, the obtained iNKT cells were sorted by performing a magnetic CD4^+ cell isolation (CD4 MicroBeads kit commercialized by Miltenyi Biotec Inc.), retrieving the negative fraction, performing a magnetic iNKT^+ isolation on said fraction (Anti-iNKT MicroBeads kit commercialized by Miltenyi Biotec Inc.) and retrieving the positive fraction corresponding to the isolated CD4^− iNKT cell population.

## IL-15: human cytokine that stimulates the proliferation of T-lymphocytes; Uniprot P40933
D14 of culture, n=14
  mean % CD4^− iNKT cells±SEM: 60.6±5.23%
Cytokine present during expansion phase, n=17, cells at day 14 / cells at day 0
  mean expansion factor of CD4^− iNKT cells±SEM: 652±128
End of 14-day culture, healthy donor PBMC
  CD4^− iNKT cells among the expanded iNKT cells: 61%
Healthy donor PBMC, 0.82% iNKT at D0
  percentage of iNKT cells at the end of the 14-day culture (% among total T lymphocytes): 81.5%
